# From US11071731B2, “Allosteric modulators of the mu opioid receptor” (Chiromics, LLC, priority 2017, dated 2021)
# Experiments:
# [1] = target: T1, mu opioid receptor (MOR) (Homo sapiens, UniProt P35372); assay: PathHunter β-arrestin recruitment assay, PAM mode with EC20 endomorphin-1; type: cell-based
# How it was run: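 β-Arrestin recruitment to the receptor was tracked by chemiluminescent β-galactosidase activity from complementing fragments (ED on receptor, EA on β-arrestin). Per-compound outputs were EC50 and percent maximal response.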
# [2] = target: T1, mu opioid receptor (MOR); assay: Hit Hunter cAMP signaling assay (adenylyl cyclase inhibition), PAM mode with EC20 endomorphin-1; type: cell-based
# [3] = maximal response for β-arrestin recruitment
# [4] = β-arrestin recruitment, activity switching by MOR PAMs
# [5] = β-arrestin recruitment, activity switching by MOR PAMs, read-out: β-arrestin EC50
# [6] = β-arrestin recruitment, read-out: β-arr. EC50
# [7] = adenylyl cyclase inhibition, activity switching by MOR PAMs
# [8] = adenylyl cyclase inhibition, activity switching by MOR PAMs, read-out: cAMP EC50
# [9] = adenylyl cyclase inhibition, read-out: cAMP EC50
# [10] = maximal response for adenylyl cyclase inhibition
# [11] = cAMP EC50, adenylyl cyclase inhibition
# [12] = maximal response, β-arrestin recruitment
# [13] = maximal response, adenylyl cyclase inhibition
# T1 sequence (P35372 whole entry, the tested form may be a part): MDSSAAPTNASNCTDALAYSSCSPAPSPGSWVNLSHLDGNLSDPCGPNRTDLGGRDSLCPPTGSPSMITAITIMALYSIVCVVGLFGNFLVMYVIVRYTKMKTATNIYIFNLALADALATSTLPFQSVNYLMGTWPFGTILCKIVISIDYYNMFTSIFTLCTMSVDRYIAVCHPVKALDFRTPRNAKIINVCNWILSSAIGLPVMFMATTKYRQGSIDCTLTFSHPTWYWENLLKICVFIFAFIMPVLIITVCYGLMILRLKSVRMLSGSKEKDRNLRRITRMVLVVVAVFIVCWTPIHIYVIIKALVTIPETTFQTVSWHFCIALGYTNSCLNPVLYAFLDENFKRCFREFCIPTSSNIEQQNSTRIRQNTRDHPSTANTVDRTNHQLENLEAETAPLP
Structure (SMILES),"β-arr Max. Resp. [1, 3]","β-arrestin Max Response [1, 4]","EC50 [1, 5] [nM]","EC50 [1, 6] [nM]","cAMP Max Resp. [2, 7]","EC50 [2, 8] [nM]","EC50 [2, 9] [nM]","cAMP Max. Resp. [2, 10]","EC50 [2, 11] [nM]","β-arr Max. Resp. [1, 12]","cAMP Max. Resp. [2, 13]"
O=S(=O)(c1ccc(Cl)cc1)N1CCCCC1c1cc(C(F)(F)F)ccn1 (racemic) [compound 79],F (F represents a maximal response of > 60%),F (F represents a maximal response of >60%),> 2100,> 2100,D (D represents a maximal response of < 40%),> 2100,> 2100,D (D represents a maximal response of < 40%),,,
N#Cc1cc(C2CCCCN2S(=O)(=O)c2ccc(Cl)cc2)ccn1 (racemic) [compound 80],E (E represents a maximal response of 40-60%),,,> 2100,,,> 2100,D (D represents a maximal response of < 40%),,,
COC(=O)c1cc(C2CCCCN2S(=O)(=O)c2ccc(Cl)cc2)ccn1 (racemic) [compound 81],E (E represents a maximal response of 40-60%),,,> 2100,,,> 2100,D (D represents a maximal response of < 40%),,,
O=S(=O)(c1ccc(Cl)cc1)N1CCCCC1c1cncc(F)c1 (racemic) [compound 82],D (D represents a maximal response of < 40%),,,> 2100,,,> 2100,D (D represents a maximal response of < 40%),,,
O=S(=O)(c1ccc(Cl)cc1)N1CCCCC1c1cncc(C(F)(F)F)c1 (racemic) [compound 83],D (D represents a maximal response of < 40%),D (D represents a maximal response of < 40%),> 2100,> 2100,D (D represents a maximal response of < 40%),> 2100,> 2100,D (D represents a maximal response of < 40%),,,
COc1ccc(C2CCCCCN2S(=O)(=O)c2ccc(Cl)cc2)cc1Br (racemic) [compound 84],E (E represents a maximal response of 40-60%),,,> 2100,,,> 2100,D (D represents a maximal response of < 40%),,,
CC[C@@H]1CCCN(c2nc(Cl)ncc2F)[C@@H]1c1ccc(OC)c(Br)c1 (relative stereo) [compound 250],F (F represents a maximal response of > 60%),,,> 2100,,,,D (D represents a maximal response of < 40%),> 2100,,
O[C@H]1CC[C@H](c2cc(F)cc(C(F)(F)F)c2)N(c2nc(Cl)ncc2F)C1 (relative stereo) [compound 310],F (F represents a maximal response of > 60%),,,> 2100,,,700 to 2100,F (F represents a maximal response of > 60%),,,
"COc1ccc(C2CC(C)CN2S(=O)(=O)c2ccc(Cl)cc2)cc1Br (single isomer, unassigned) [Compound 118]",E (E represents a maximal response of 40-60%),,,700 to 2100,,,> 2100,D (D represents a maximal response of < 40%),,,
"COc1ccc(C2CC(C(F)(F)F)CN2S(=O)(=O)c2ccc(Cl)cc2)cc1Br (single isomer, unassigned) [Compound 119]",E (E represents a maximal response of 40-60%),,,> 2100,,,> 2100,D (D represents a maximal response of < 40%),,,
"COc1ccc(C2CC(C(F)(F)F)CN2S(=O)(=O)c2ccc(Cl)cc2)cc1Br (single isomer, unassigned) [Compound 120]",F (F represents a maximal response of > 60%),,,> 2100,,,> 2100,F (F represents a maximal response of > 60%),,,
"Fc1cc(C2COCCN2c2nc(Cl)ncc2F)cc(C(F)(F)F)c1 (single isomer, unassigned) [Compound 344]",D (D represents a maximal response of < 40%),,,< 700,,,< 700,D (D represents a maximal response of < 40%),,,
"Fc1cc(C2COCCN2c2nc(Cl)ncc2F)cc(C(F)(F)F)c1 (single isomer, unassigned) [Compound 347]",D (D represents a maximal response of < 40%),,,< 700,,,< 700,D (D represents a maximal response of < 40%),,,
"COc1ccc(C2CCCCN2S(=O)(=O)c2ccc(Cl)cc2)cc1Br (single isomer, unassigned) [compound 5]",D (D represents a maximal response of < 40%),,,> 2100,,,,D (D represents a maximal response of < 40%),> 2100,,
"Fc1ccc(C2CCCCN2c2nc(Cl)ncc2F)cc1Cl (single isomer, unassigned) [compound 10]",F (F represents a maximal response of > 60%),,,< 700,,,,E (E represents a maximal response of 40-60%),< 700,,
"Fc1ccc(C2CCCCN2c2nc(Cl)ncc2F)cc1Cl (single isomer, unassigned) [compound 11]",F (F represents a maximal response of > 60%),,,< 700,,,,E (E represents a maximal response of 40-60%),,,

Structure (SMILES),"β-arr Max. Resp. [1, 3]","β-arrestin Max Response [1, 4]","EC50 [1, 5] [nM]","EC50 [1, 6] [nM]","cAMP Max Resp. [2, 7]","EC50 [2, 8] [nM]","EC50 [2, 9] [nM]","cAMP Max. Resp. [2, 10]","EC50 [2, 11] [nM]","β-arr Max. Resp. [1, 12]","cAMP Max. Resp. [2, 13]"
"O=S(=O)(c1ccc(Cl)cc1)N1CCCCC1c1ccc(F)c(Br)c1 (single isomer, unassigned) [compound 56]",F (F represents a maximal response of > 60%),,,> 2100,,,700 to 2100,E (E represents a maximal response of 40-60%),,,
"O=S(=O)(c1ccc(Cl)cc1)N1CCCCC1c1ccc(Cl)c(C(F)(F)F)c1 (single isomer, unassigned) [compound 69]",F (F represents a maximal response of > 60%),,,> 2100,,,700 to 2100,D (D represents a maximal response of < 40%),,,
"Fc1cnc(Cl)nc1N1CCCCC1c1ccc(Cl)c(Br)c1 (single isomer, unassigned) [compound 125]",F (F represents a maximal response of > 60%),,,< 700,,,,F (F represents a maximal response of > 60%),< 700,,
"[2H]C1(c2cccc(C(F)(F)F)c2)C(F)CCCN1c1nc(Cl)ncc1F (single isomer, unassigned) [compound 208]",F (F represents a maximal response of > 60%),,,> 2100,,,,F (F represents a maximal response of > 60%),,,
"[2H]C1(c2cccc(C(F)(F)F)c2)C(F)CCCN1c1nc(Cl)ncc1F (single isomer, unassigned) [compound 209]",F (F represents a maximal response of > 60%),,,700 to 2100,,,,D (D represents a maximal response of < 40%),,,
"O=S(=O)(c1ccc(Cl)cc1)N1CCCCC1c1ccc(Cl)c(C(F)(F)F)c1 (single isomer, unassigned) [compound 220]",F (F represents a maximal response of > 60%),,,> 2100,,,700 to 2100,D (D represents a maximal response of < 40%),,,
"CC1CC(c2cccc(C(F)(F)F)n2)N(c2nc(Cl)ncc2F)C1 (single isomer, unassigned) [compound 221]",D (D represents a maximal response of < 40%),,,> 2100,,,> 2100,D (D represents a maximal response of < 40%),,,
"Fc1ccc(C2CCCCN2c2nc(Cl)ncc2F)cc1Cl (single isomer, unassigned) [compound 343]",D (D represents a maximal response of < 40%),,,< 700,,,< 700,D (D represents a maximal response of < 40%),,,
"Fc1cnc(Cl)nc1N1CCCCC1c1ccc(Cl)c(C(F)(F)F)c1 (single isomer, unassigned) [compound 345]",D (D represents a maximal response of < 40%),,,< 700,,,,D (D represents a maximal response of < 40%),< 700,,
"Fc1ccc(C2CCCCN2c2nc(Cl)ncc2F)cc1Cl (single isomer, unassigned) [compound 346]",D (D represents a maximal response of < 40%),,,< 700,,,< 700,D (D represents a maximal response of < 40%),,,
"Fc1cnc(Cl)nc1N1CCCCC1c1ccc(Cl)c(C(F)(F)F)c1 (single isomer, unassigned) [compound 348]",D (D represents a maximal response of < 40%),,,< 700,,,,D (D represents a maximal response of < 40%),,,
"Fc1cc(Cl)cc(C2CCCCN2c2nc(Cl)ncc2F)c1 (single isomer, unassigned) [compound 404]",D (D represents a maximal response of < 40%),,,< 700,,,,D (D represents a maximal response of < 40%),< 700,,
"Fc1cc(Cl)cc(C2CCCCN2c2nc(Cl)ncc2F)c1 (single isomer, unassigned) [compound 420]",,,,< 700,,,,,,D (D represents a maximal response of < 40%),D (D represents a maximal response of < 40%)
"Fc1ccc(C2CCCCN2c2nc(Cl)ncc2F)cc1C(F)(F)F (single isomer, unassigned) [compound 422]",,,,< 700,,,,,< 700,D (D represents a maximal response of < 40%),D (D represents a maximal response of < 40%)
"Fc1cc(C2CCCCN2c2nc(Cl)ncc2F)cc(C(F)(F)F)c1 (single isomer, unassigned) [compound 423]",,,,< 700,,,,,< 700,D (D represents a maximal response of < 40%),D (D represents a maximal response of < 40%)
